Patent publication US12569468B2, “Use of palovarotene in treatment against HBV virus” (YANG SHENG TANG COMPANY, LTD., priority 2020, dated 2026)

System: HBV cccDNA
Test: Southern blot detection of HBV cccDNA in infected HepG2-hNTCP 2B1
Format: cell-based, hepatitis B virus
Conditions: 5 μM, day 6 to day 12 after infection, compared with interferon IFNα 500 IU control group and blank group
Method: Southern blot experiment was carried out on a 10 cm^2 culture plate. About 5×10^6 HepG2-hNTCP 2B1 cells were plated in each 10 cm^2 culture plate, and medium B was added. After the cells adhered, medium A was used for replacement to perform the induction with Doxycycline during the whole experiment. HBV infection was performed 4 days after the induction with Doxycycline, and the amount of HBV for infection was 1000 MOI. Before infection, HBV was diluted in medium C to obtain HBV solution, and the infection volume was 5 mL. During infection, the cell supernatant was first removed by suction, the HBV solution was added to the cells, the cells were incubated for 24 hours, then the supernatant was collected as the sample of Day 0. Then the cells were washed three times with PBS, and fresh medium A was used for replacement. After that, the supernatant was collected every two days for detection, fresh medium A was used for replacement. […]

For CC1(C)CCC(C)(C)c2cc(Cn3cccn3)c(/C=C/c3ccc(C(=O)O)cc3)cc21 [Palovarotene], the “level of HBV cccDNA (Southern blot)” value was “significantly lower”.
